The values that follow come from US5639793A, “Mammalian DNA topoisomerase II inhibitor and method” (The University of North Carolina at Chapel Hill, priority 1995, dated 1997).

SMILES strings stand for the structures. “Also recorded” adds a separate entry of the source. Where two headings read alike, the source gives them in different places.

For orientation: EC50 means the concentration at which the effect is half-maximal.

The conditions of data set [1]: background; cited from earlier work.
In data set [2] the test system is HIV replication. The conditions noted are these: background (Baum); cited from earlier work.
Data set [3] has as its system mammalian DNA topoisomerase II. The experiment in a line: P4 DNA unknotting assay, topoisomerase II inhibition in vitro. As to conditions: for Topoisomerase II activity on decreasing drug concentration (P4 DNA unknotting): 2-fold serial dilutions; for Potency relative to VP-16 (topoisomerase II inhibition): more potent than VP-16. It is filed as biochemical, HeLa (human). The procedure:
DNA topoisomerase II was purified as described (Kashiwada). Briefly, a 150 mM NaCl extract from Triton X-100-treated HeLa cell nuclei was obtained. Salt was dialyzed and the partially purified enzyme was loaded on a heparin-Sepahrose CL-6B column and batch eluted with a buffer containing increasing salt concentrations.
Enzyme activity was measured using the P4 DNA unknotting assay (Liu, 1981). P4 DNA isolated from bacteriophage P4 consists of monomeric DNA circles with their cohesive ends hydrogen-bonded and contains multiple topological knots. Such highly knotted P4 DNA can be converted to its simple circular form by mammalian DNA topoisomerase II, and can be used as a sensitive assay to detect topoisomerase II activity.
P4 DNA unknotting reactions by topoisomerase II were performed in the absence or presence of potential topoisomerase II inhibitors. […] Products from the […] reactions were run out on an agarose gel to determine the extent of P4 DNA unknotting and stained with ethidium bromide.
Topoisomerase II was purified from calf thymus by a known method (Kashiwada). P4 DNA was prepared as described (Liu, 1983). Agarose gel assays for P4 DNA unknotting were performed as follows. Reactions (20 microliters) containing 50 mM Tris-HCl (pH 7.5), 100 mM KCl, 10 mM magnesium chloride, 1 mM ATP, 0.5 mM dithiothreitol, 0.5 mM EDTA, bovine serum albumin (30 microgram/ml), 100 ng P4 DNA, one unit of HeLa DNA topoisomerase II, and varying concentrations of topoisomerase II inhibitors were incubated at 37° C. After 30 minutes, reactions were terminated by addition of a solution containing 10% SDS. The samples were electrophoresed through a 1% agarose gel in 90 mM Trisborate (pH 8.3)-2 mM EDTA buffer (Rowe).

Data set [4] relates to human osteogenic sarcoma (HOS) cells. Briefly: Protein-linked DNA breaks in HOS cells (K-SDS precipitation). The conditions noted are these: for Induction of protein-linked DNA breaks: 30 minutes; for Induction of protein-linked DNA breaks in HOS cells: 20 micromolar, FIG. 9B; for Reversal of protein-linked DNA breaks after drug removal: an hour after removal. The format is cell-based. Here is the method: Quantitation of protein-linked DNA breaks was performed according to a published procedure (Rowe). DNA in growing cells was labeled by adding methyl-^3 H-thymidine. […] Cells were lysed and protein-linked DNA complexes were precipitated by the K-SDS precipitiation method (Rowe).
(§1) A modified K-SDS precipitation assay was used to quantitate in vivo formation of protein-linked DNA breaks (Rowe). HOS cells were grown in Eagle's medium. The DNA in logarithmically growing cells (about 2×10^5 cells) was labelled by adding tritiated methyl-thymidine (specific activity: 40 Ci/mmol) into the medium to a final concentration of 0.5 microCurie per ml. After overnight incubation, cells were washed and incubated for another 2 hours at 37° C. The cells were then treated with various concentrations of drugs for 30 minutes. The cells were lysed with 1 ml prewarmed lysis solution containing 1.25% SDS, 5 mM EDTA (pH 8) salmon sperm DNA (0.4 mg/ml).
(§2) The lysate was transferred to a 1.5 ml Eppendorf tube and after syringing 8 times through a 22 G 11/2 gauge needle, 250 microliter of 325 mM KCl were added. The sample was cooled on ice for 10 minutes and centrifuged at 4° C. The pellet was resuspended in 10 mM Tris-HCl (pH 8)-100 mM KCl-1 mM EDTA and salmon sperm DNA (0.1 mg/ml) and placed at 65° C. for 10 minutes with occasional mixing. The suspension was cooled on ice for 10 minutes and recentrifuged. The pellet was washed again before resuspending in water (65° C.). The suspension was combined with 4 ml scintillation fluid and the radioactivity was determined.
(§3) Protein-linked DNA breaks assays were performed as described for Example 4 using HOS and HOS colR cells. Cells were treated with 20 micromolar […], TFC and TMBC.

In data set [5] the test system is HOS cells. Briefly: Plating efficiency / cytotoxicity in HOS cells. The conditions noted are these: one-hour treatment, Table 1. Here is the method:
Plating efficiencies are indicative of a compound's cytotoxicity (Goz).
(§4) Colonies of about 50 or more cells were counted and the plating efficiency was calculated as the per cent cells that were able to form colonies (Goz).

The subject of data set [6] is BHK-Ve cells (BHK-B cells treated with vincristine in the presence of verapamil). Briefly: BHK-Ve cell growth inhibition. The format is cell-based, hamster. The procedure:
(§5) Cell growth inhibition assays were performed according to published procedures (Crumpton).
Verapamil inhibits drug binding to the p170 glycoprotein drug efflux pump.
(§6) The HOS cell growth inhibition assays were done according to a published procedure (Crumpton). All cells were grown in Eagle's minimium essential medium supplemented with 10% fetal bovine serum. Flasks were seeded at a density of 1×10^3 cell/cm^2 for monolayer cultures or 2×10^4 /ml for suspension cultures. Suspension cultures were used immediately for drug addition after dilution to a suitable starting density, and, about 24 hours after seeding, the compounds to be tested were added to the monolayer cultures. […] Control flasks also contained 0.1% DMSO.
as §4

Data set [7] has as its system HOS cells resistant to colchicine (HOS colR), expressing p170 glycoprotein. The experiment in a line: HOS colR cell growth inhibition. The format is cell-based, human. The conditions noted are these: for EC50: HOS colR cells; for EC50 for HOS colR cells compared with HOS cells: HOS colR versus HOS not expressing p170. The procedure:
as §5, §6, §4

Data set [8] relates to BHK-B cells (vincristine-selected, expressing p170 glycoprotein). The conditions noted are these: for BHK-B growth inhibition compared with BHK, in words: BHK-B versus BHK; for Export by the drug efflux pump: p170 glycoprotein, conclusion from BHK-B data; for EC50: read-out: BHK-B-EC50. The procedure:
as §5
BHK-B cells are baby hamster kidney cells that have been selected with 0.05 microgram/ml vincristine and that express p170 glycoprotein. Sensitivity of BHK-B cells to TFC, TMBC and vincristine was investigated.
as §6, §4

Data set [9] concerns HOS colR cells. Briefly: Protein-linked DNA breaks in HOS colR cells. The conditions noted are these: 20 micromolar, FIG. 9B. The format is cell-based, human. Here is the method: The amount of protein-linked DNA breaks caused by VP-16, TFC and TMBC were compared in HOS and HOS colR cells to determine whether […] glycoprotein expression would affect these drugs' ability to induce protein-linked DNA breaks and inhibit topoisomerase II activity.
as §1, §2, §3

The test system of data set [10] is human osteogenic sarcoma (HOS) cells. The experiment in a line: HOS cell growth inhibition (antiproliferative activity). It is filed as cell-based. The procedure:
(§7) Additionally, baby hamster kidney (BHK) cell growth inhibition by these derivatives was investigated.
as §5, §6, §4

Data set [11] relates to baby hamster kidney (BHK) cells. The experiment in a line: BHK cell growth inhibition. It is filed as cell-based. The procedure:
as §7, §5, §6, §4

Data set [12] has as its system mammalian DNA topoisomerase II. The conditions noted are these: D'Arpa; cited from earlier work.
The mark [13] stands for this setting: Table 2, read-out: HOS ColR EC50.
The mark [14] stands for this setting: 10-50 micromolar TFC, increasing concentrations TMBC.
[15] abbreviates: read-out: EC50, HOS cell replication.

With `COc1cc2c(c(OC)c1OC)-c1ccc(OC)c(=O)cc1[C@@H](NC(C)=O)CC2` [Colchicine, colchicine, reference compound], the “Toxicity at therapeutic doses” value in [1] is “usually at toxic or nearly toxic doses”. Further, in data set [2], the “Inhibition of HIV replication” value is listed as “inhibitor of HIV replication”. Also, the “Inhibition of topoisomerase II activity” value in data set [3] (concentrations as high as 200 micromolar) is recorded as “does not appear to inhibit topoisomerase II activity”. Besides, in [4] (colchicine 50 micromolar), the “Induction of protein-linked DNA breaks” value is “did not induce protein-linked DNA breaks”.
`O=C(N[C@H]1CCc2cc(O)c(O)c(O)c2-c2ccc(O)c(=O)cc21)C(F)(F)F` [TFC, N-trifluoroacetyl-1,2,3,10-tetrademethyldeactylcolchicine]: the HOS--LD50 in data set [5] came out at 14 µM. Besides, the “Topoisomerase II activity on decreasing drug concentration (P4 DNA unknotting)” value in data set [3] (50 to 6.25 micromolar, FIG. 8 lanes 7-10) is “more striking increase of enzyme activity as the concentration of TFC is decreased”. Further, the “Potency relative to VP-16 (topoisomerase II inhibition)” value in data set [3] is “about 2 fold”. In addition, the EC50 stood at 37 µM in [6] (Table 2, read-out: BHK-Ve-EC50); 37 µM in data set [6] (read-out: EC50, BHK-Ve cells); 26 µM in data set [7] (setting [13]); 26 µM in data set [7] (read-out: EC50, HOS colR cells); 82 µM in [8] (BHK-B cells, Table 2); 28 µM in data set [10] (Table 1, read-out: HOS--EC50). Also, in data set [10] (setting [15]), the EC50 is 28 µM. Moreover, the “EC50 for HOS colR cells compared with HOS cells” value in data set [7] was “remained virtually unchanged”. Besides, the “Induction of protein-linked DNA breaks in HOS cells” value (“Induction … in HOS cells” for short) in data set [4] is reported as “can induce protein-linked DNA cleavage to a lesser extent”. Moreover, the “Induction of protein-linked DNA breaks” value in [4] (setting [14]) is reported as “induces DNA breaks in a dose-dependent manner; also recorded: induce protein-linked DNA breaks in a dose-dependent fashion”. Further, the “Reversal of protein-linked DNA breaks after drug removal” value in data set [4] was “within an hour all the protein-linked DNA breaks have been reversed”. In addition, the “Protein-linked DNA breaks reversed within half an hour of drug removal” value in data set [4] (within half an hour after removal) is on record as “approximately 90%”. The “BHK-B growth inhibition compared with BHK, in words” value in data set [8] is given as “inhibited by approximately similar concentrations”. Besides, the “Export by the drug efflux pump” value in data set [8] is listed as “are not”. The “Induction of protein-linked DNA breaks in HOS colR cells” value (shortened to “Induction … in HOS colR cells”) in [9] is on record as “Neither protein-linked DNA cleavage by either TFC or TMBC appear to be affected by the expression of g170 glycoprotein”.
In [5], `O=C(N[C@H]1CCc2cc(O)c(O)c(O)c2-c2ccc(O)c(=O)cc21)c1cc(O)c(O)c(O)c1` [TMBC, N-(3',4',5'-trihydroxybenzoyl)-1,2,3,10-tetrademethyldeacetylcolchicine] gave an HOS--LD50 of 18 µM. In addition, in data set [3], the “Potency relative to VP-16 (topoisomerase II inhibition)” value was approximately 17 fold. For the same molecule, the EC50 in [6] (Table 2, read-out: BHK-Ve-EC50) came out at 24 µM; in data set [6] (read-out: EC50, BHK-Ve cells), 24 µM; in [7] (setting [13]), 28 µM; in data set [7] (read-out: EC50, HOS colR cells), 28 µM; in data set [11] (Table 1, read-out: BHK--EC50), 28 µM; in data set [11] (read-out: EC50, BHK growth inhibition) it was 28 µM. The EC50 stood at 13 µM in data set [8] (BHK-B cells, Table 2); 21 µM in data set [10] (Table 1, read-out: HOS--EC50); 21 µM in [10] (setting [15]). For the same molecule, the “EC50 for HOS colR cells compared with HOS cells” value in data set [7] was “remained virtually unchanged”. Moreover, the “Induction … in HOS cells” value in [4] is given as “can induce protein-linked DNA cleavage to a lesser extent”. Further, the “Induction of protein-linked DNA breaks” value in data set [4] (setting [14]) was “almost as effective as TFC for protein-linked DNA break induction; also recorded: induce protein-linked DNA breaks in a dose-dependent fashion”. Besides, the “Reversal of protein-linked DNA breaks after drug removal” value in data set [4] is “more slowly reversed than for TFC, so that after an hour's time after reversal some protein-linked DNA breaks still remain”. Besides, in data set [8], the “BHK-B growth inhibition compared with BHK, in words” value was “inhibited by approximately similar concentrations”. In addition, the “Export by the drug efflux pump” value in [8] is “are not”. Also, the “Induction … in HOS colR cells” value in data set [9] is on record as “Neither protein-linked DNA cleavage by either TFC or TMBC appear to be affected by the expression of g170 glycoprotein”.
Turning to `COc1cc([C@@H]2c3cc4c(cc3[C@@H](O[C@@H]3O[C@@H]5CO[C@@H](C)O[C@H]5[C@H](O)[C@H]3O)[C@H]3COC(=O)[C@H]23)OCO4)cc(OC)c1O` [VP-16, etoposide, reference compound], the “Topoisomerase II activity on decreasing drug concentration (P4 DNA unknotting)” value in data set [3] (100 to 12.5 micromolar, FIG. 8 lanes 3-6) is “increase of topoisomerase II activity as the concentration of VP-16 is decreased”. In data set [12], the “Topoisomerase II inhibition, known” value was “known to inhibit topoisomerase II activity”. In addition, the “Induction … in HOS cells” value in data set [4] is on record as “very effective to cause protein-linked DNA breaks”. The “Induction … in HOS colR cells” value in [9] is listed as “limited effect in causing protein-linked DNA breaks”.
For `CC[C@]1(O)C[C@H]2CN(CCc3c([nH]c4ccccc34)[C@@](C(=O)OC)(c3cc4c(cc3OC)N(C=O)[C@H]3[C@@](O)(C(=O)OC)[C@H](OC(C)=O)[C@]5(CC)C=CCN6CC[C@]43[C@@H]65)C2)C1` [Vincristine, reference compound], in data set [6] (Table 2), the “BHK-Ve-EC50 / concentration necessary to inhibit BHK-Ve cell growth” value was 2.7 µg/mL. The BHK--EC50 in data set [11] (Table 1) stood at 0.006 µg/mL. In data set [8] (BHK-B cells, Table 2), this molecule displayed a BHK-B-EC50 of 0.34 µg/mL. In data set [8] (hamster, bhk-b vs bhk cells), the “Concentration necessary to inhibit BHK-B growth relative to BHK” value was “approximately 50 fold”. The “Export by the drug efflux pump” value in data set [8] is given as “exported by the drug efflux pump”.
